Source: article PMC6368365, “Didehydro-Cortistatin A Inhibits HIV-1 by Specifically Binding to the Unstructured Basic Region of Tat” (mBio, 2019)

Experiments:
[1] = molecular target: T1, Hexim-1 binding to 7SK snRNP (Homo sapiens, UniProt O94992); assay: RNA immunoprecipitation of 7SK snRNP by intracellular Hexim-1; format: cell-based; conditions: HeLa-CD4-LTR-LacZ cells, 48 h
T1 construct: endogenous in cells; host or cells: HeLa-CD4-LTR-LacZ (RNA immunoprecipitation); HeLa-CD4-LTR-Luc (immunofluorescence)
Excerpt: (A) Sequence of the basic domains of HIV Tat HXB3, HIV Rev Bru and intracellular Hexim-1. […] Shown is confocal microscopy analysis of the subcellular localization of transfected FLAG-Tat or FLAG-Rev in the presence of DMSO or dCA in HeLa-CD4-LTR-Luc cells. Proteins were recognized with anti-FLAG and Alexa Fluor 568-tagged anti-IgG. Magnification 60×. Data are representative of n = 2 independent experiments. (C) Quantification of the nucleolar fluorescence of panel B using ImageJ. Data are the mean ± SEM from 3 to 4 different cells. […] HeLa-CD4-LTR-LacZ cells were infected with strain NL4-3 for 24 hours. The next day, compounds (dCA, 10 nM; KPT, 400 nM; and SCM, 10 nM) were added for 24 hours. Total, nuclear, and cytoplasmic mRNAs were extracted, and viral messages were determined by qRT-PCR. GAPDH was used for normalization. Data are the mean ± SD from n = 5 independent experiments. […] (G) Quantification of nuclear fluorescence of panel F using ImageJ. […] Statistical significance was determined using one-way ANOVA with post hoc Tukey’s test. ns, not significant; ***, P < 0.0001; **, P < 0.001.
Hexim-1 directly binds to cyclin T1 and is responsible for the inactivation of the kinase activity of P-TEFb ([35], [36]). […] Intracellular Hexim-1 was immunoprecipitated, and 7SK snRNP bound to Hexim-1 was extracted, reverse transcribed, and quantified by qRT-PCR as previously described ([42]) (Fig. 3E). […]

[2] = molecular target: T2, Trp^11 of Tat protein (Human immunodeficiency virus type 1 group M subtype B, UniProt P69697); assay: Trp fluorescence assay of recombinant Tat; format: binding, HIV-1; conditions: for effect on intrinsic Trp fluorescence of Tat: compound/Tat ratio of 7.5/1
T2 construct: pTatC6H-1 (NIH AIDS Reagent Program) plasmid encoding C-terminal 6xHistidine Tat1-86 (HXB3, subtype B); made in house; host or cells: E. coli BL21 (plasmid pTatC6H-1, NIH AIDS Reagent Program)
Excerpt: Next, we investigated whether dCA mediated conformational changes in Tat. NMR studies have reported the fluorescence of Tat’s unique Trp^11 to be highly sensitive to conformational modifications ([2], [15]). As such, we assessed Tat fluorescence between wavelengths of 310 nm and 410 nm (Fig. 5A, left).
FIG 5 dCA stabilizes Tat structure. (A) Trp fluorescence assays. (Left) Schematic of the assay. (Center) DMSO, dCA (7.5× Tat concentration) or raltegravir (Ralt.; 7.5× Tat concentration) was incubated with Tat. The fluorescence of the Trp^11 of Tat protein was measured at the indicated wavelengths. Acrylamide (250 mM) was used as a quenching control of Tat fluorescence. (Right) Peak absorbance (λmax) versus increasing fold ratios of compounds to Tat protein. Data are representative of n = 3 independent experiments. (B) DARTS assays. Tat was incubated with DMSO or dCA, at increasing concentrations, in the presence of increasing concentrations of proteinase K (PK). […] Data are representative of n = 2 independent experiments. (C) Steady state of Tat in the presence of dCA in vivo. HeLa-CD4-LTR-Luc cells were incubated with recombinant Tat and then washed and incubated with the indicated compounds for 6 hours. […] (Left) Western blot representative of n = 4 independent experiments. MG132 was used as a positive control of Tat protection from degradation, and raltegravir was used as a negative control. (Right) Densitometry of the Tat band normalized to the actin band. Results represent the mean ± SEM from n = 4 independent experiments. Statistical significance was determined using one-way ANOVA with post hoc Tukey’s test. ns, not significant; ***, P < 0.0001; **, P < 0.001.
Recombinant Tat (2.5 μM) was incubated with different concentrations of dCA or raltegravir in a 96-well plate. The solution was excited at 280 nm, and the emission of Trp fluorescence was read from 310 to 410 nm. The background induced by the compounds alone or buffer of dilution was subtracted from the Trp signal. Acrylamide (250 mM) was used as a quencher of the fluorescence.

T2 sequence (P69697 whole entry): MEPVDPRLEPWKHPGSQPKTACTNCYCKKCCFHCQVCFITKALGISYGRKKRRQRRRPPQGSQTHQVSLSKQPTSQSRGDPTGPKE
T1 sequence (O94992 whole entry): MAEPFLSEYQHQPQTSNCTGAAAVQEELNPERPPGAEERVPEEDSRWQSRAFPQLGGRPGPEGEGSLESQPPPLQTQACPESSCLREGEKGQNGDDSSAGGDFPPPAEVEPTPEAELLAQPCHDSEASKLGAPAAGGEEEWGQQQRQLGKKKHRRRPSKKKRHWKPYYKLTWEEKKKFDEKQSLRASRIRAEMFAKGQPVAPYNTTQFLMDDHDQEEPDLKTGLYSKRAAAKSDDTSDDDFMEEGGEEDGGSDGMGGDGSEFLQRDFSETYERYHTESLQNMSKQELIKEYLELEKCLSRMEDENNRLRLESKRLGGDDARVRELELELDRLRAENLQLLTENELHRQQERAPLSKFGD

SMILES	interaction between Hexim-1 and 7SK snRNP [1]	λmax of Tat Trp fluorescence ([2]; compound/Tat ratio 7.5/1, Tat alone 360 nm) [nm]	effect on intrinsic Trp fluorescence of Tat [2]	I330/350 ratio of Tat Trp fluorescence ([2]; dCA/Tat ratio of 7.5/1, Tat alone 0.73)
C[C@@](Cc1ccc(O)c(O)c1)(NN)C(=O)O.O [SCM, S-(−)-carbidopamonohydrate, reference compound]	similarly detected	–	–	–
CN(C)C1CC23CCC4(O2)C(=CCC2(C)C(c5ccc6ccncc6c5)=CCC24)C=C3C(O)C1O (stereo not drawn) [dCA, didehydro-cortistatin A]	similarly detected	350	decreased intensity of the Trp fluorescence	0.893
Cc1nnc(C(=O)NC(C)(C)c2nc(C(=O)NCc3ccc(F)cc3)c(O)c(=O)n2C)o1 [raltegravir, reference compound]	–	–	no effect on the intrinsic fluorescence of Tat	–
